Test results: patent publication US8076487B2, “Pyridone derivative and herbicide” (Kumiai Chemical Industry Co., Ltd., priority 2006, dated 2011)

Tests used:
Type in all cases: in vivo
[1] = system: barnyardgrass (Echinochloa crus-galli (L.) P. Beauv. var. crus-galli); experiment: Test Example 3: herbicidal effect by application to upland field (foliage treatment); conditions: foliage treatment, 1,000 g active ingredient per 1 hectare, 14th day after application, greenhouse
How it was run: (§1)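 Upland foliage test in greenhouse pots of field soil: seedlings sprayed at two weeks post-sowing with 1,000 g/ha active ingredient (wettable powder, 1,000 L water/ha). Scored 14 d after application.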

[2] = system: velvetleaf (Abutilon theophrasti medicus); experiment: as above; conditions: foliage treatment, 1,000 g active ingredient per 1 hectare, 14th day after application, greenhouse
How it was run: as §1

[3] = system: green foxtail (Setaria viridis (L.) P. Beauv.); experiment: as above; conditions: foliage treatment, 1,000 g active ingredient per 1 hectare, 14th day after application, greenhouse
How it was run: as §1

[4] = system: slender amaranth (Amaranthus viridis L.); experiment: as above; conditions: foliage treatment, 1,000 g active ingredient per 1 hectare, 14th day after application, greenhouse
How it was run: as §1

[5] = system: barnyardgrass (Echinochloa crus-galli (L.) P. Beauv. var. crus-galli); experiment: Test Example 2: herbicidal effect by soil application to upland field; conditions: soil surface spray, upland field soil, 1,000 g active ingredient per hectare, 21st day after application
How it was run: (§2)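 After sowing and covering, the soil received an even aqueous spray of wettable powder at a rate of 1,000 g active ingredient/ha (1,000 L/ha). Ratings of herbicidal effect followed a standard scale 21 days post-treatment, with plants held in a greenhouse.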

[6] = system: velvetleaf (Abutilon theophrasti medicus); experiment: as above; conditions: soil surface spray, upland field soil, 1,000 g active ingredient per hectare, 21st day after application
How it was run: as §2

[7] = system: green foxtail (Setaria viridis (L.) P. Beauv.); experiment: as above; conditions: soil surface spray, upland field soil, 1,000 g active ingredient per hectare, 21st day after application
How it was run: as §2

[8] = system: slender amaranth (Amaranthus viridis L.); experiment: as above; conditions: soil surface spray, upland field soil, 1,000 g active ingredient per hectare, 21st day after application
How it was run: as §2

[9] = system: heartshape false pickerelweed (Monochoria vaginalis (Burm.f.) C.Presl); experiment: Test Example 1: herbicidal effect by soil application to paddy field; conditions: paddy field soil application; active ingredient 1,000 g per 1 hectare; wettable powder added dropwise to water surface the day after sowing; examined on the 21st day after application
How it was run: (§3)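 Plants were sown in flooded (3 cm) paddy soil and evaluated for herbicidal effect 21 days after soil application in a greenhouse.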

[10] = system: Japanese bulrush (Scirpus juncoides Roxb.); experiment: as above; conditions: paddy field soil application; active ingredient 1,000 g per 1 hectare; wettable powder added dropwise to water surface the day after sowing; examined on the 21st day after application
How it was run: as §3

[11] = system: early watergrass (Echinochloa oryzicola Vasing); experiment: as above; conditions: paddy field soil application; active ingredient 1,000 g per 1 hectare; wettable powder added dropwise to water surface the day after sowing; examined on the 21st day after application
How it was run: as §3

Row | Compound | herbicidal effect, Barnyardgrass [1] | herbicidal effect, Velvetleaf [2] | herbicidal effect, Green Foxtail [3] | herbicidal effect, Slender Amaranth [4] | herbicidal effect (index), Barnyardgrass [5] | herbicidal effect (index), Velvetleaf [6] | herbicidal effect (index), Green Foxtail [7] | herbicidal effect (index), Slender Amaranth [8] | herbicidal effect, Monochoria vaginalis (Burm. f.) C. Presl [9] | herbicidal effect, Scirpus juncoides Roxb. [10] | herbicidal effect, Echinochloa oryzicola Vasing [11]
1 | COCC(C)n1c(C(F)(F)F)ccc(C(=O)c2cnn(C)c2O)c1=O (stereo not shown) [IV-36] | 5 (90% or more of herbicidal effect and crop phytotoxicity) | 5 (90% or more of herbicidal effect and crop phytotoxicity) | 5 (90% or more of herbicidal effect and crop phytotoxicity) | 5 (90% or more of herbicidal effect and crop phytotoxicity) | 5 (90% or more of herbicidal effect and crop phytotoxicity) | 5 (90% or more of herbicidal effect and crop phytotoxicity) | 3 (50 to less than 70% of herbicidal effect and crop phytotoxicity) | 5 (90% or more of herbicidal effect and crop phytotoxicity) | 5 (90% or more of herbicidal effect and crop phytotoxicity) | 5 (90% or more of herbicidal effect and crop phytotoxicity) | 5 (90% or more of herbicidal effect and crop phytotoxicity)
2 | CCCS(=O)(=O)Oc1c(C(=O)c2ccc(C(F)(F)F)n(C(C)COC)c2=O)cnn1C (stereo not shown) [IV-37] | 5 (90% or more of herbicidal effect and crop phytotoxicity) | 5 (90% or more of herbicidal effect and crop phytotoxicity) | 3 (50 to less than 70% of herbicidal effect and crop phytotoxicity) | 5 (90% or more of herbicidal effect and crop phytotoxicity) | 5 (90% or more of herbicidal effect and crop phytotoxicity) | 5 (90% or more of herbicidal effect and crop phytotoxicity) | 5 (90% or more of herbicidal effect and crop phytotoxicity) | 5 (90% or more of herbicidal effect and crop phytotoxicity) | 5 (90% or more of herbicidal effect and crop phytotoxicity) | 5 (90% or more of herbicidal effect and crop phytotoxicity) | 5 (90% or more of herbicidal effect and crop phytotoxicity)
3 | COC(C)Cn1c(C(F)(F)F)ccc(C(=O)c2cnn(C)c2O)c1=O (stereo not shown) [IV-38] | 5 (90% or more of herbicidal effect and crop phytotoxicity) | 5 (90% or more of herbicidal effect and crop phytotoxicity) | 5 (90% or more of herbicidal effect and crop phytotoxicity) | 5 (90% or more of herbicidal effect and crop phytotoxicity) | 5 (90% or more of herbicidal effect and crop phytotoxicity) | 5 (90% or more of herbicidal effect and crop phytotoxicity) | 4 (70 to less than 90% of herbicidal effect and crop phytotoxicity) | 5 (90% or more of herbicidal effect and crop phytotoxicity) | 5 (90% or more of herbicidal effect and crop phytotoxicity) | 5 (90% or more of herbicidal effect and crop phytotoxicity) | 5 (90% or more of herbicidal effect and crop phytotoxicity)
4 | CCCS(=O)(=O)Oc1c(C(=O)c2ccc(C(F)(F)F)n(CC(C)OC)c2=O)cnn1C (stereo not shown) [IV-39] | 5 (90% or more of herbicidal effect and crop phytotoxicity) | 5 (90% or more of herbicidal effect and crop phytotoxicity) | 3 (50 to less than 70% of herbicidal effect and crop phytotoxicity) | 5 (90% or more of herbicidal effect and crop phytotoxicity) | 5 (90% or more of herbicidal effect and crop phytotoxicity) | 4 (70 to less than 90% of herbicidal effect and crop phytotoxicity) | 3 (50 to less than 70% of herbicidal effect and crop phytotoxicity) | 4 (70 to less than 90% of herbicidal effect and crop phytotoxicity) | 5 (90% or more of herbicidal effect and crop phytotoxicity) | 5 (90% or more of herbicidal effect and crop phytotoxicity) | 5 (90% or more of herbicidal effect and crop phytotoxicity)
5 | COCCCn1c(C(F)(F)F)ccc(C(=O)c2cnn(C)c2O)c1=O [IV-47] | 4 (70 to less than 90% of herbicidal effect and crop phytotoxicity) | 5 (90% or more of herbicidal effect and crop phytotoxicity) | 5 (90% or more of herbicidal effect and crop phytotoxicity) | 5 (90% or more of herbicidal effect and crop phytotoxicity) | 4 (70 to less than 90% of herbicidal effect and crop phytotoxicity) | 5 (90% or more of herbicidal effect and crop phytotoxicity) | 5 (90% or more of herbicidal effect and crop phytotoxicity) | 5 (90% or more of herbicidal effect and crop phytotoxicity) | 5 (90% or more of herbicidal effect and crop phytotoxicity) | 5 (90% or more of herbicidal effect and crop phytotoxicity) | 5 (90% or more of herbicidal effect and crop phytotoxicity)
6 | COCCCn1c(C(F)(F)F)ccc(C(=O)c2cnn(C)c2OC(C)=O)c1=O [IV-48] | 5 (90% or more of herbicidal effect and crop phytotoxicity) | 5 (90% or more of herbicidal effect and crop phytotoxicity) | 4 (70 to less than 90% of herbicidal effect and crop phytotoxicity) | 5 (90% or more of herbicidal effect and crop phytotoxicity) | 4 (70 to less than 90% of herbicidal effect and crop phytotoxicity) | 5 (90% or more of herbicidal effect and crop phytotoxicity) | 5 (90% or more of herbicidal effect and crop phytotoxicity) | 5 (90% or more of herbicidal effect and crop phytotoxicity) | 5 (90% or more of herbicidal effect and crop phytotoxicity) | 5 (90% or more of herbicidal effect and crop phytotoxicity) | 5 (90% or more of herbicidal effect and crop phytotoxicity)
7 | Cn1ncc(C(=O)c2ccc(C(F)(F)F)n(CCS(C)(=O)=O)c2=O)c1O [IV-54] | 5 (90% or more of herbicidal effect and crop phytotoxicity) | 5 (90% or more of herbicidal effect and crop phytotoxicity) | 5 (90% or more of herbicidal effect and crop phytotoxicity) | 5 (90% or more of herbicidal effect and crop phytotoxicity) | 5 (90% or more of herbicidal effect and crop phytotoxicity) | 5 (90% or more of herbicidal effect and crop phytotoxicity) | 5 (90% or more of herbicidal effect and crop phytotoxicity) | 5 (90% or more of herbicidal effect and crop phytotoxicity) | 4 (70 to less than 90% of herbicidal effect and crop phytotoxicity) | 4 (70 to less than 90% of herbicidal effect and crop phytotoxicity) | 5 (90% or more of herbicidal effect and crop phytotoxicity)
8 | Cn1ncc(C(=O)c2ccc(C(F)(F)F)n(-c3ccccc3)c2=O)c1O [IV-62] | 5 (90% or more of herbicidal effect and crop phytotoxicity) | 5 (90% or more of herbicidal effect and crop phytotoxicity) | 5 (90% or more of herbicidal effect and crop phytotoxicity) | 5 (90% or more of herbicidal effect and crop phytotoxicity) | 5 (90% or more of herbicidal effect and crop phytotoxicity) | 5 (90% or more of herbicidal effect and crop phytotoxicity) | 5 (90% or more of herbicidal effect and crop phytotoxicity) | 5 (90% or more of herbicidal effect and crop phytotoxicity) | 5 (90% or more of herbicidal effect and crop phytotoxicity) | 5 (90% or more of herbicidal effect and crop phytotoxicity) | 5 (90% or more of herbicidal effect and crop phytotoxicity)
